Measured values published in patent publication US20110104157A1, “LIVER CANCER DRUG” (Chugai Seiyaku Kabushiki Kaisha, priority 2008, published 2011).

What was measured:
Assay type in all cases: in vivo
[1] = Example 5 body weight loss in HepG2 xenograft mouse model; conditions: Sorafenib 80 mg/kg oral
Excerpt: Sorafenib was synthesized according to Organic Process Research & Development (2002) 6, 777-781.
Th data is expressed by the time course of the body weight of the mice (mean±SD).

HuH-7 xenograft = test: Example 2 antitumor effect, HuH-7 xenograft mouse model (hGC33 and Sorafenib); conditions: hGC33 5 mg/kg i.v. weekly x3 alone or Sorafenib 80 mg/kg oral 5 times per week x3 alone
Procedure: (§1) HepG2 cells or HuH-7 cells (5×10^5 cells) dispersed in 50% Matrigel (Becton Dickinson) were subcutaneously implanted. When the tumor volume reached 250 mm^3, the mice were divided into groups and administration commenced.
(§2) The asterisks in the figures indicate that P<0.05, based on the Dunnett's test. […] The open circles indicate the change in body weight in the group given the vehicle. […] The open squares indicate the change in body weight in the group given only Sorafenib in a dose of 80 mg/kg. […]

[2] = Example 2 body weight loss in HepG2 xenograft mouse model; conditions: Sorafenib 80 mg/kg oral, relative to tumor-associated weight loss of the model
Procedure: as §1, §2

CNC(=O)c1cc(Oc2ccc(NC(=O)Nc3ccc(Cl)c(C(F)(F)F)c3)cc2)ccn1 [Sorafenib, 4-[4-[[4-chloro-3-(trifluoromethyl)phenyl]carbamoylamino]phenoxy]-N-methylpyridine-2-carboxamide]
weight loss with Sorafenib alone [1]: enhanced
tumor growth, single agent (HuH-7 xenograft): suppressed
weight loss with Sorafenib alone [2]: further enhanced
